Measured values from patent US20250382344A1, “Soluble GLP1/GIP/NPY2 Receptor Triple Agonists” (Boehringer Ingelheim International GmH, priority 2024, published 2025).
Like-named read-outs stand apart in the source and are kept apart here.

Experiments:
[1] = Mouse PK after intravenous application; format: in vivo; settings: plasma, male NMRI mice, intravenous 30-60 nmol/kg, non-compartmental analysis
Procedure: Pharmacokinetic parameters of the peptides were determined after intravenous application to NMRI mice (Naval Medical Research Institute mice). Male NMRI mice were obtained from Janvier Laboratories (France) weighing 30 g to 40 g. Mice were housed in standard cages with a 12:12 hours light:dark cycle and standard food and water access ad libitum. Each test peptide was dissolved in 50 mM phosphate buffer (pH 7.4)/3.5% mannitol. Intravenous application of 30-60 nmol/kg was performed via the tail vein. Serial blood samples from conscious mice were collected from the saphenous vein in EDTA-containing vials at different time points up to 56 hours post-dosing. Subsequently, plasma was prepared by centrifugation for 5 minutes at approximately 5000 rpm and stored at −20° C. until quantification of the peptide plasma levels by liquid chromatography mass spectrometry (LC-MS). Individual plasma concentration-time profiles were analysed by a non-compartmental approach and the resulting pharmacokinetic parameters were calculated.

[2] = target: T1, hGIPR (Homo sapiens, UniProt P48546); test: hGIPR CreLuc assay in 0.5% and 100% plasma (CHO CRE-luciferase reporter cells); format: cell-based
T1 construct: expressed in transfected cells; host or cells: CHO CRE-luciferase reporter cells
T1 sequence (P48546 22-466): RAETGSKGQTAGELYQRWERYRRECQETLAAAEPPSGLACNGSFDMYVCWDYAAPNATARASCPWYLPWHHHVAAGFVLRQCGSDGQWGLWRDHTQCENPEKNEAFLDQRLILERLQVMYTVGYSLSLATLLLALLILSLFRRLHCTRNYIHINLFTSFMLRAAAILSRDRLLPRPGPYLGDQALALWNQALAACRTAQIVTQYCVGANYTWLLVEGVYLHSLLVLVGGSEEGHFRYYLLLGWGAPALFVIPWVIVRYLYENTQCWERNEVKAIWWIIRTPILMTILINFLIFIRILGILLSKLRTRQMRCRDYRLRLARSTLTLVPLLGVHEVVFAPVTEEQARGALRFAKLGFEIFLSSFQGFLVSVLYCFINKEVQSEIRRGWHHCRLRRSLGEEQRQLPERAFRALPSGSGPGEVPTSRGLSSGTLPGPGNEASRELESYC

[3] = Solubility in 0.1 M phosphate buffer at pH 7; format: physicochemical; settings: 0.1 M phosphate buffer at pH 7, 10 mg/mL final peptide concentration, shaking 2 hours at room temperature, peptides as TFA-salts, measured sample pH 6.5-7.0
[4] = target: T2, hNPY2R (Homo sapiens, UniProt P49146); test: hNPY2R CreLuc assay in 0.5% and 100% plasma (HEK-293 CRE-luciferase reporter cells); format: cell-based; settings: 100% human plasma, HEK-293 reporter cells, read-out: hNPY2R 100% hP
T2 construct: expressed in transfected cells; host or cells: HEK-293 CRE-luciferase reporter cells
T2 sequence (P49146 1-381): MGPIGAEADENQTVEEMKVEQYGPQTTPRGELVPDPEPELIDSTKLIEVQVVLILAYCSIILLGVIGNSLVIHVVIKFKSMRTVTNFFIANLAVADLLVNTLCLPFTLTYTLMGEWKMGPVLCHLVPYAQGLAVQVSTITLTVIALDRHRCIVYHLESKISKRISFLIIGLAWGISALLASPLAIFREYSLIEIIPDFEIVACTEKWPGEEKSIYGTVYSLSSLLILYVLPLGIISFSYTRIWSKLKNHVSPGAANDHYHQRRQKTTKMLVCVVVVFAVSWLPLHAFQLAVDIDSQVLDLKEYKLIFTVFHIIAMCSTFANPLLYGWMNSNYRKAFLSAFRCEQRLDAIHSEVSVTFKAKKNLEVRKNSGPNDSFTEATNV

[5] = target: T3, hGLP1R (Homo sapiens, UniProt P43220); test: hGLP1R CreLuc assay in 0.5% and 100% plasma (HEK-293 CRE-luciferase reporter cells); format: cell-based; settings: HEK-293 reporter cells
T3 construct: expressed in transfected cells; host or cells: HEK-293 CRE-luciferase reporter cells

[6] = 0.5% human plasma, read-out: hGIPR 0.5% hP
[7] = 0.5% human plasma, read-out: hGLP1R 0.5% hP

T3 sequence (P43220 24-463): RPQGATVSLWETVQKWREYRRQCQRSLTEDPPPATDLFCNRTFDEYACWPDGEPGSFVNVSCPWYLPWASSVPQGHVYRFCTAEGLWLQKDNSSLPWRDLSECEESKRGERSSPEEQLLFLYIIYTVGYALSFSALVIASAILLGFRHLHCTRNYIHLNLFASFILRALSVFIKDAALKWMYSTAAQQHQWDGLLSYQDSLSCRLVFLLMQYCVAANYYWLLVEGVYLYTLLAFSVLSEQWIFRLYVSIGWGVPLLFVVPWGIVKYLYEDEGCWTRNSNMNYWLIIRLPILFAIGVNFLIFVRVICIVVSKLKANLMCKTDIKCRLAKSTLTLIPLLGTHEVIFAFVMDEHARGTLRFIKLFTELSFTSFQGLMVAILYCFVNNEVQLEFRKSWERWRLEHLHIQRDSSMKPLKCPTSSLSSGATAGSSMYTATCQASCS

Compound	MRT [1]	EC50 [2, 6]	solubility at 2 h [3]	EC50 [4]	EC50 [5, 7]	EC50 ([5]; 100% human plasma, read-out: hGLP1R 100% hP)	solubility ([3]; read-out: Solubility)	EC50 ([2]; 100% human plasma, read-out: hGIPR 100% hP)
CC[C@H](C)[C@H](NC(=O)[C@H](CC(C)C)NC(=O)[C@H](Cc1c[nH]cn1)NC(=O)[C@H](CCCNC(=N)N)NC(=O)[C@@H](NC(=O)[C@H](Cc1ccccc1)NC(=O)[C@H](C)NC(=O)C(C)(C)NC(=O)[C@H](CCC(=O)O)NC(=O)[C@H](C)NC(=O)[C@H](CCC(N)=O)NC(=O)[C@H](CCCCN)NC(=O)[C@H](CCC(=O)O)NC(=O)[C@H](CC(C)C)NC(=O)C(C)(C)NC(=O)[C@@H](NC(=O)[C@H](CO)NC(=O)[C@H](Cc1ccc(O)cc1)NC(=O)[C@H](CC(=O)O)NC(=O)[C@H](CO)NC(=O)[C@@H](NC(=O)[C@H](Cc1ccccc1)NC(=O)[C@@H](NC(=O)CNC(=O)[C@H](CCC(=O)O)NC(=O)C(C)(C)NC(=O)[C@@H](N)Cc1ccc(O)cc1)[C@@H](C)O)[C@@H](C)O)[C@@H](C)CC)C(C)C)C(=O)N[C@@H](CC(N)=O)C(=O)N[C@@H](CCCCNC(=O)[C@@H](N)CCCCNC(=O)CC[C@H](NC(=O)CC[C@H](NC(=O)CC[C@H](NC(=O)CC[C@H](NC(=O)CC[C@H](NC(=O)CC[C@H](NC(=O)CCCCCCCCCCCCCCCCC(=O)O)C(=O)O)C(=O)O)C(=O)O)C(=O)O)C(=O)O)C(=O)O)C(=O)NC(C)(C)C(=O)N[C@H](C(=O)N[C@@H](CCCNC(=N)N)C(=O)N[C@@H](CCC(N)=O)C(=O)N[C@@H](CCCNC(=N)N)C(=O)N[C@@H](Cc1ccc(O)cc1)C(N)=O)[C@@H](C)O [Compound 10, Y-Aib-E-G-T-F-T-S-D-Y-S-I-Aib-L-E-K-Q-A-E-Aib-A-F-V-R-H-L-I-N-K(1,3)-Aib-T-R-Q-R-Y-NH2.C18DA-gGlu-gGlu-gGlu-gGlu-gGlu-gGlu-eLys(1,2)]	7.3 h	0.6 nM	3800 µg/mL	28.2 nM	–	–	–	–
CC[C@H](C)[C@H](NC(=O)[C@H](CC(C)C)NC(=O)[C@H](Cc1c[nH]cn1)NC(=O)[C@H](CCCNC(=N)N)NC(=O)[C@@H](NC(=O)[C@H](Cc1ccccc1)NC(=O)[C@H](C)NC(=O)C(C)(C)NC(=O)[C@H](CCC(N)=O)NC(=O)[C@H](C)NC(=O)[C@H](CCC(N)=O)NC(=O)[C@H](CCCCN)NC(=O)[C@H](CCC(=O)O)NC(=O)[C@H](CC(C)C)NC(=O)C(C)(C)NC(=O)[C@@H](NC(=O)[C@H](CO)NC(=O)[C@H](Cc1ccc(O)cc1)NC(=O)[C@H](CC(=O)O)NC(=O)[C@H](CO)NC(=O)[C@@H](NC(=O)[C@H](Cc1ccccc1)NC(=O)[C@@H](NC(=O)CNC(=O)[C@H](CCC(=O)O)NC(=O)C(C)(C)NC(=O)[C@@H](N)Cc1ccc(O)cc1)[C@@H](C)O)[C@@H](C)O)[C@@H](C)CC)C(C)C)C(=O)N[C@@H](CC(N)=O)C(=O)N[C@@H](CCCCNC(=O)CC[C@H](NC(=O)CC[C@H](NC(=O)CC[C@H](NC(=O)CC[C@H](NC(=O)CCCCCCCCCCCCCCCCC(=O)O)C(=O)O)C(=O)O)C(=O)O)C(=O)O)C(=O)NC(C)(C)C(=O)N[C@H](C(=O)N[C@@H](CCCNC(=N)N)C(=O)N[C@@H](CCC(N)=O)C(=O)N[C@@H](CCCNC(=N)N)C(=O)N[C@@H](Cc1ccc(O)cc1)C(N)=O)[C@@H](C)O [Compound 77, Y-Aib-E-G-T-F-T-S-D-Y-S-I-Aib-L-E-K-Q-A-Q-Aib-A-F-V-R-H-L-I-N-K(1,3)-Aib-T-R-Q-R-Y-NH2.C18DA-gGlu-gGlu-gGlu-gGlu(1,2)]	7.4 h	0.3 nM	400 µg/mL	–	0.4 nM	1.8 nM	–	–
CC[C@H](C)[C@H](NC(=O)[C@H](CC(C)C)NC(=O)[C@H](Cc1c[nH]cn1)NC(=O)[C@H](CCCNC(=N)N)NC(=O)[C@@H](NC(=O)[C@H](Cc1ccccc1)NC(=O)[C@H](CCC(=O)O)NC(=O)C(C)(C)NC(=O)[C@H](CCC(N)=O)NC(=O)[C@H](C)NC(=O)[C@H](CCC(N)=O)NC(=O)[C@H](CCCCN)NC(=O)[C@H](CCC(=O)O)NC(=O)[C@H](CC(C)C)NC(=O)C(C)(C)NC(=O)[C@@H](NC(=O)[C@H](CO)NC(=O)[C@H](Cc1ccc(O)cc1)NC(=O)[C@H](CC(=O)O)NC(=O)[C@H](CO)NC(=O)[C@@H](NC(=O)[C@H](Cc1ccccc1)NC(=O)[C@@H](NC(=O)CNC(=O)[C@H](CCC(=O)O)NC(=O)C(C)(C)NC(=O)[C@@H](N)Cc1ccc(O)cc1)[C@@H](C)O)[C@@H](C)O)[C@@H](C)CC)C(C)C)C(=O)N[C@@H](CC(N)=O)C(=O)N[C@@H](CCCCNC(=O)CC[C@H](NC(=O)CC[C@H](NC(=O)CC[C@H](NC(=O)CC[C@H](NC(=O)CCCCCCCCCCCCCCCCC(=O)O)C(=O)O)C(=O)O)C(=O)O)C(=O)O)C(=O)NC(C)(C)C(=O)N[C@H](C(=O)N[C@@H](CCCNC(=N)N)C(=O)N[C@@H](CCC(N)=O)C(=O)N[C@@H](CCCNC(=N)N)C(=O)N[C@@H](Cc1ccc(O)cc1)C(N)=O)[C@@H](C)O [Compound 79, Y-Aib-E-G-T-F-T-S-D-Y-S-I-Aib-L-E-K-Q-A-Q-Aib-E-F-V-R-H-L-I-N-K(1,3)-Aib-T-R-Q-R-Y-NH2.C18DA-gGlu-gGlu-gGlu-gGlu(1,2)]	7 h	–	–	–	–	–	4200 µg/mL	–
CC[C@H](C)[C@H](NC(=O)[C@H](CC(C)C)NC(=O)[C@H](Cc1c[nH]cn1)NC(=O)[C@H](CCCNC(=N)N)NC(=O)[C@@H](NC(=O)[C@H](Cc1ccccc1)NC(=O)[C@H](C)NC(=O)C(C)(C)NC(=O)[C@H](CCC(N)=O)NC(=O)[C@H](C)NC(=O)[C@H](CCC(N)=O)NC(=O)[C@H](CCCCN)NC(=O)[C@H](CCC(=O)O)NC(=O)[C@H](CC(C)C)NC(=O)C(C)(C)NC(=O)[C@@H](NC(=O)[C@H](CO)NC(=O)[C@H](Cc1ccc(O)cc1)NC(=O)[C@H](CC(=O)O)NC(=O)[C@H](CO)NC(=O)[C@@H](NC(=O)[C@H](Cc1ccccc1)NC(=O)[C@@H](NC(=O)CNC(=O)[C@H](CCC(=O)O)NC(=O)C(C)(C)NC(=O)[C@@H](N)Cc1ccc(O)cc1)[C@@H](C)O)[C@@H](C)O)[C@@H](C)CC)C(C)C)C(=O)N[C@@H](CC(N)=O)C(=O)N[C@@H](CCCCNC(=O)[C@@H](N)CCCCNC(=O)CC[C@H](NC(=O)CC[C@H](NC(=O)CC[C@H](NC(=O)CC[C@H](NC(=O)CC[C@H](NC(=O)CC[C@H](NC(=O)CC[C@H](NC(=O)CCCCCCCCCCCCCCCCC(=O)O)C(=O)O)C(=O)O)C(=O)O)C(=O)O)C(=O)O)C(=O)O)C(=O)O)C(=O)NC(C)(C)C(=O)N[C@H](C(=O)N[C@@H](CCCNC(=N)N)C(=O)N[C@@H](CCC(N)=O)C(=O)N[C@@H](CCCNC(=N)N)C(=O)N[C@@H](Cc1ccc(O)cc1)C(N)=O)[C@@H](C)O [Compound 121, Y-Aib-E-G-T-F-T-S-D-Y-S-I-Aib-L-E-K-Q-A-Q-Aib-A-F-V-R-H-L-I-N-K(1,3)-Aib-T-R-Q-R-Y-NH2.C18DA-gGlu-gGlu-gGlu-gGlu-gGlu-gGlu-gGlu-eLys(1,2)]	10 h	0.2 nM	4200 µg/mL	–	0.4 nM	–	–	2.8 nM
